Source: patent publication US20130059850A1, “AZA-INDOLE DERIVATIVES USEFUL AS MODULATORS OF FAAH” (MERCK SHARP & DOHME CORP., priority 2010, published 2013)

What was measured:
[1] = molecular target: T1, human FAAH (Fatty Acid Amide Hydrolase) (Homo sapiens, UniProt O00519); test: FAAH enzyme assay on CHO cell lysate expressing human FAAH (human LY), AAMCA fluorescent substrate; format: biochemical; details: human FAAH_CHO cell lysate
T1 construct: The full length FAAH was subcloned into the mammalian expression vector, pcDEF.neo, using XbaI and EcoRI restriction sites; expressed in transfected cells
T1 sequence (O00519 1-579): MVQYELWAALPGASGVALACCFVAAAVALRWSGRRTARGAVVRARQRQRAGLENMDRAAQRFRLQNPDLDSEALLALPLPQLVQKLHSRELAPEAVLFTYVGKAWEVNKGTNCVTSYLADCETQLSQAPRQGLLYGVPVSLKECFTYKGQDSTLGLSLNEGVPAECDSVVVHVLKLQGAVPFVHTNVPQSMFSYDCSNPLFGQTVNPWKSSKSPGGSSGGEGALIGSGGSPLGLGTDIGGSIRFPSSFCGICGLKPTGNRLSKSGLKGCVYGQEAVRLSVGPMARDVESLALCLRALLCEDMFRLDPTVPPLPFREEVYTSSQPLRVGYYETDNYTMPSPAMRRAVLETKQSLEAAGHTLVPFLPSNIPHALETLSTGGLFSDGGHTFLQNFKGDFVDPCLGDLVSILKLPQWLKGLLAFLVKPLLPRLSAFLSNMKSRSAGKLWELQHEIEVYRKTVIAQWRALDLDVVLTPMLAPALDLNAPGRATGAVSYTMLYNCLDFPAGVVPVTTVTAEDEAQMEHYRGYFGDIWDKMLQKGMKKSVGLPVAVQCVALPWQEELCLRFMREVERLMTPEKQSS
Description: (§1) To assist in assay development stable cell lines for human, murine and rat full length FAAH were developed. Human FAAH cDNA (Accession No: NM_001441.1) was purchased from Origene (Rockville, Md.). The full length FAAH was subcloned into the mammalian expression vector, pcDEF.neo, using XbaI and EcoRI restriction sites and used for stable cell line generation.
CHO cells expressing FAAH were used to prepare either crude cell lysate or microsome fractions. To harvest cells, tissue culture media was decanted, the monolayer washed three times with Ca^++Mg^++ free PBS and cells recovered after […] in enzyme free dissociation media (Millipore Corp, Billerica, Mass.). Cells were collected by centrifuging at 2000 rpm for 15 min. and the cell pellet re-suspended with 50 mM HEPES (pH 7.4) containing 1 mM EDTA and the protease inhibitors aprotinin (1 mg/ml) and leupeptin (100 μM). The suspension was sonicated at 4° C. and the cell lysate recovered after centrifuging at 12,000×g (14,600 rpm, SS34 rotor) for 20 min at 4° C. to form a crude pellet of cell debris, nuclei, peroxisomes, lysosomes, and mitochondria; the supernatant or cell lysate was used for FAAH enzyme assay. In some cases, microsomes fractions enriched in FAAH were prepared by centrifuging the cell lysate further at 27,000 rpm (100,000×g) in SW28 rotor for 50 minutes at 4° C. The pellet containing FAAH-enriched microsomes was re-suspend in 50 mM HEPES, (pH 7.4) 1 mM EDTA, and any remaining DNA sheared by passage of material through a 23 gauge needle and aliquots of enzyme were store at −80° C. prior to use.
(§2) (American Radiolabeled Chemicals; 1 mCi/ml) with FAAH (Life Sciences (1995), 56, 1999-2005 and Journal of Pharmacology and Experimented Therapeutics (1997), 283, 729-734), Analytical. Biochemistry (2003), 318, 270-5. In addition, routine assays were performed monitoring hydrolysis of arachidonyl-7-amino-4-methylcoumarin amide (AAMCA) by following increase in fluorescence upon release of 7-amino 4-methyl coumarin (λEX=355 nm, μEM=460 nm). Analytical. Biochemistry (2005). 343, 143-51
(§3) Assays are performed on either cell lysate or microsome fractions prepared as described or in whole cell format employing either the fluorescent substrate AAMCA (Cayman chemical, Ann Arbor, Mich.,) or ^3H-anandamide ([ETHANOLAMINE-1-3H] American Radiolabeled Chemicals; 1 mCi/ml). The cell lysate or microsome assay is performed in black PerkinElmer OptiPlates-384F by adding FAAH_CHO (whole cell (human whole cell or human WC), cell lysate (human cell lysate or human LY) or microsome) in assay buffer (50 mM Phosphate, pH 8.0, 1 mM EDTA, 200 mM KCl, 0.2% glycerol, 0.1% fatty acid free BSA) to each well, followed by either DMSO or compound and allowed to incubate at 22-25° C. for fifteen minutes. AAMCA substrate was used to achieve a final concentration of 1 μM and reaction allowed to proceed at room temperature for 1-3 hours. Fluorescent release as a measure of FAAH activity was monitored by reading the plate in a Envision plate Reader (Ex: 360/40 nM; Em: 460/40 nM). Whole cell assay is conducted with cells harvested after rinsing tissue culture flasks three times with Ca^++Mg^++ free PBS, incubating for […] in Enzyme free dissociation media and centrifuging for 5 minutes at 1,000 rpm in table top centrifuge. Cells are resuspended in assay buffer at desired cell number in (4×10^4 cells/assay in 96-well format; 1×10^4 cells/assay in 384-well format) and assayed as described.

[2] = molecular target: T1, human FAAH (Fatty Acid Amide Hydrolase); test: FAAH whole cell assay on CHO cells expressing human FAAH (human WC), AAMCA fluorescent substrate; format: cell-based; details: human FAAH_CHO whole cell
Description: as §1
Murine (accession number NM_010173) and Rat FAAH (accession number NM_024132) was amplified by reverse transcriptase polymerase chain reaction (RT-PCR) from brain cDNA (BD Biosciences, San Jose, Calif.) using primers 1 and 2 or primers 1 and 3 respectively (see Table). The resulting PCR product was ligated into pCR4 TOPO and DNA sequence confirmed. The full length murine FAAH was subcloned into the mammalian expression vector, pcDEFneo using either EcoRI (murine) or KpnI and EcoRI (rat) restriction sites. Chinese hamster ovary cells (CHO) were transfected following manufacturers protocol (AMAXA). Forty eight hours post transfection, cells were trypsinized and transferred to 96 well plates in Iscove's DMEM media supplemented with 2 mM Glutamine, 10% fetal calf serum, 1 mg/ml geneticin and HT Supplement (0.1 mM sodium hypoxanthine, 0.016 mM thymidine) in order to isolate single clones. Following selection in geneticin, individual clones were selected and FAAH activity was assessed using a whole cell fluorescent anandamide assay, modified from Ramarao et al (2005). Following removal of tissue culture media cells were dislodged following addition of Cellstripper (Mediatech, Inc. Manassas, Va.) and transferred to 96 well black clear bottom assay plate, centrifuged at 1,000 rpm for 3 mins and media removed and replaced with assay buffer (50 mM Tris pH8.0, 1 mM EDTA, 0.1% fatty acid free BSA). The reaction was initiated by addition of fluorescent substrate, AMC Arachidonoyl Amide (Cayman Chemical, Ann Arbor, Mich.) to 1 μM and reaction allowed to proceed for 2 hours at room temperature. Release of fluorescence was monitored in a CytoFluor Multiplate Reader. Cells expressing the highest amount of FAAH activity were selected for study with FAAH inhibitors.
as §2
as §3, with “Cells are resuspended in assay buffer at desired cell number in (4×10^4 cells/assay in 96-well format; 1×10^4 cells/assay in 384-well format) and assayed as described.” left out

SMILES | IC50 [1] | IC50 [2]
Clc1ccc(Sc2c(-c3ccc4c(c3)OCCO4)[nH]c3ncccc23)cc1 [Example B6, 3-[(4-chlorophenyl)sulfanyl]-2-(2,3-dihydro-1,4-benzodioxin-6-yl)-1H-pyrrolo[2,3-b]pyridine] | 4.42 nM | 11.8 nM
COc1cccc(-c2[nH]c3ncccc3c2Sc2ccc(Cl)cc2)c1 [Example B7] | 2.23 nM | 18.8 nM
COc1ccc(-c2[nH]c3ncccc3c2Sc2ccc(Cl)cc2)cc1 [Example B8] | 2.34 nM | 10.3 nM
COc1ccc(-c2[nH]c3ncccc3c2Sc2ccc(Cl)cc2)cc1OC [Example B9] | 1.43 nM | 3.83 nM
Clc1ccc(Sc2c(-c3cccc4[nH]ccc34)[nH]c3ncccc23)cc1 [Example B10] | 3.88 nM | 20.7 nM
Cn1ccc2cc(-c3[nH]c4ncccc4c3Sc3ccc(Cl)cc3)ccc21 [Example B11] | 3.29 nM | 10.2 nM
CC(O)c1ccc(-c2[nH]c3ncccc3c2Sc2ccc(Cl)cc2)cc1 (stereo not drawn) [Example B12] | 11.6 nM | 27.1 nM
Clc1ccc(Sc2c(-c3ccc4c(c3)OCCO4)[nH]c3ncccc23)nc1 [Example B13] | 2.89 nM | 13 nM
COc1ncc(-c2[nH]c3ncccc3c2Sc2ccc(Cl)cc2)c(OC)n1 [Example B14] | 9.47 nM | 47.4 nM
Clc1ccc(Sc2c(C3=CCCC3)[nH]c3ncccc23)cc1 [Example B15] | 107 nM | 1110 nM
N#CC1CC=C(c2[nH]c3ncccc3c2Sc2ccc(Cl)cc2)CC1 (stereo not drawn) [Example B16] | 21.7 nM | 119 nM
Clc1ccc(Sc2c(C3=CCCOC3)[nH]c3ncccc23)cc1 [Example B17] | 31.9 nM | 190 nM
COc1ccc(-c2[nH]c3ncccc3c2Sc2ccc(Cl)cc2)c(OC)n1 [Example B18] | 23.2 nM | 124 nM
Cc1n[nH]c(C)c1-c1[nH]c2ncccc2c1Sc1ccc(Cl)cc1 [Example B19] | 65.6 nM | 364 nM
Cn1cc(-c2[nH]c3ncccc3c2Sc2ccc(Cl)cc2)cn1 [Example B20] | 238 nM | 4160 nM
Clc1ccc(Sc2c(-c3ccnc4[nH]ccc34)[nH]c3ncccc23)cc1 [Example B27] | 3.18 nM | 30 nM
Clc1ccc(Sc2c(-c3ccsc3)[nH]c3ncccc23)cc1 [Example B28] | 217 nM | 1520 nM

SMILES | IC50 [1] | IC50 [2]
CC(=O)c1ccc(-c2[nH]c3ncccc3c2Sc2ccc(Cl)cc2)s1 [Example B29] | 10.2 nM | 41.1 nM
Cc1noc(C)c1-c1[nH]c2ncccc2c1Sc1ccc(Cl)cc1 [Example B30] | 208 nM | 1110 nM
Clc1ccc(Sc2c(-c3cnn4c3CCC4)[nH]c3ncccc23)cc1 [Example B31] | 113 nM | 686 nM
N#Cc1cscc1-c1[nH]c2ncccc2c1Sc1ccc(Cl)cc1 [Example B32] | 94.8 nM | 438 nM
Clc1ccc(Sc2c(-c3cccs3)[nH]c3ncccc23)cc1 [Example B33] | 464 nM | 8540 nM
CC(C)(O)/C=C/c1[nH]c2ncccc2c1Sc1ccc(Cl)cc1 [Example B34] | 213 nM | 1110 nM
Clc1ccc(Sc2c(-c3cnn4c3CCCC4)[nH]c3ncccc23)cc1 [Example B35] | 33.5 nM | 344 nM
OC1CC=C(c2[nH]c3ncccc3c2Sc2ccc(Cl)cc2)CC1 (stereo not drawn) [Example B36] | 1.79 nM | 9.53 nM
Clc1ccc(Sc2c(-c3ccc(C4CC4)nc3)[nH]c3ncccc23)cc1 [Example B37] | 6.42 nM | 21.7 nM
CC(O)C/C=C/c1[nH]c2ncccc2c1Sc1ccc(Cl)cc1 (stereo not drawn) [Example B38] | 22.5 nM | 352 nM
FC(F)(F)c1ccc(/C=C/c2[nH]c3ncccc3c2Sc2ccc(Cl)cc2)cc1 [Example B39] | 370 nM | 370 nM
Clc1ccc(Sc2c(C3=CCCCC3)[nH]c3ncccc23)cc1 [Example B40] | 15.9 nM | 68.4 nM
COc1cc(-c2[nH]c3ncccc3c2Sc2ccc(Cl)cc2)cnc1OC [Example B41] | 6.39 nM | 16.2 nM
COc1ccc(-c2[nH]c3ncccc3c2Sc2ccc(Cl)cc2)cn1 [Example B43] | 3.42 nM | 18.9 nM
FC(F)Oc1ccc(-c2[nH]c3ncccc3c2Sc2ccc(Cl)cc2)cc1 [Example B45] | 3.28 nM | 15.7 nM
NC1CC=C(c2[nH]c3ncccc3c2Sc2ccc(Cl)cc2)CC1 (stereo not drawn) [Example B46] | 114 nM | 1410 nM
